Results published in ChEMBL document CHEMBL5260811, “Drug development against tuberculosis: Impact of alkaloids” (Eur J Med Chem, 2017).

test system: Mycobacterium tuberculosis; assay: Antimycobacterial activity against Mycobacterium tuberculosis H37Rv; assay type: functional; conditions: not given

Row | SMILES | MIC
1 | CC1=CCC[C@H](C)[C@@]1(C)CC/C(C)=C/CC/C(C)=C/Cn1c[n+](C)c2ncnc(N)c21 | 3.13 µg/mL
2 | O=C1c2c(O)ccnc2-c2nccc3c2c1nc1ccccc13 | > 42 µM
3 | COC1=CC(=O)c2nc3ccccc3c3ccnc1c23 | 1.5 µM
4 | CCSC1=CC(=O)c2nc3ccccc3c3ccnc1c23 | 0.34 µM
5 | CCCCCCCCC/C=C/C=C/C(=O)NCC(C)C | 6.2 µg/mL
6 | Nc1nc(/C=C/CNC(=O)c2cc(Br)c[nH]2)c[nH]1 | 6.1 µg/mL
7 | c1cc2c[n+](c1)CCCCCCCCCCCCCc1ccc[n+](c1)CCCCCCCCCCCCC2 | 4 µg/mL
8 | Cc1ccc(SC2=CC(=O)c3nc4ccccc4c(C)c3C2=O)cc1 | 2.2 µM
9 | O=C1C(c2ccc(O)cc2)=C2C(=C(c3ccc(O)cc3)C(=O)N2CCc2ccc(O)cc2)c2ccc(O)cc21 | 4 µg/mL
10 | C=C[C@@]1(C)C(Cl)C[C@@H]2C(C)(C)c3cccc4[nH]c5c(c34)[C@@]2(O)[C@]1(C#N)[C@@]1(CO1)C5(C)C (stereo not given in full) | 2 µM
11 | CN1C=NC2=C(N)NCNC21 (stereo not given) | 6.25 µg/mL
12 | CO/N=c1\[nH]cnc2c1[n+](C/C=C(\C)CC/C=C(\C)CCC1CCCCC1)cn2C.[Cl-] | 1.56 µg/mL
13 | O=C1C(c2ccc(O)cc2)=C(c2ccc(O)cc2)/C(=C/c2ccc(O)cc2)N1CCc1ccc(O)cc1 | 32 µg/mL
14 | C=C1CCCC(C)(C)[C@H]1CC/C(C)=C/CC/C(C)=C/C[n+]1cn(C)c2nc[nH]/c(=N\OC)c21.[Cl-] | 3 µg/mL
15 | CC(=O)C[C@@H]1C[C@H]2[C@H]([C@@H]3c4[nH]c5ccccc5c4CCN13)[C@H](O)C13CC/C=C\CCCCN1C[C@@]21CC/C=C\CCCCN[C@@H]31 | 5.2 µg/mL
16 | O=C1C(c2ccc(O)cc2)=C(c2ccc(O)cc2)C(=O)N1CCc1ccc(O)cc1 | 16 µg/mL

Row | SMILES | MIC
17 | C=C1CC[C@@]2(C#N)[C@H]3[C@H](CC[C@@H]2C)[C@@H](C)C[C@@H](CC(C)(C)C)[C@H]13 | 2 µg/mL
18 | Oc1ccc2[nH]c3c(C4=C[C@@]5(O)CC/C=C\CCCCN6CC[C@@H]4C4(C[C@@H]7/C=C\CCCCN7C45)C6)nccc3c2c1 (stereo not given in full) | 1.9 µg/mL
19 | C=C[C@@]1(C)[C@H](Cl)C[C@@H]2C(C)(C)c3cccc4[nH]c5c(c34)[C@@]2(O)[C@]1(C#N)C=CC5(C)C | 2.8 µg/mL
20 | Nc1c(Br)cc(O)c(CC(=O)O)c1Br | 15.9 µg/mL
21 | C=C1c2[nH]cc(Br)c2[C@H]2NC(N)=N[C@]23CCCN13 | 64 µg/mL
22 | C=C1CC[C@@]2(C#N)[C@H]3[C@H](CC[C@@H]2C)[C@@H](C)C[C@@H](CC(C)(C)NC(=O)CN2CCC2=O)[C@H]13 | 15.3 µg/mL
23 | CC(=O)C[C@H]1C[C@H]2[C@H]([C@@H]3c4[nH]c5ccccc5c4CCN13)[C@H](O)C13CC/C=C\CCCCN1C[C@@]21CC/C=C\CCCCN[C@@H]31 | 1.5 µg/mL
24 | C=C[C@]1(C)C/C=C(/C#N)C(C)(C)c2[nH]c3cccc4c3c2C(=C)[C@H](CC1Cl)C4(C)C (stereo not given in full) | 53.7 µM
25 | CO/N=c1\[nH]cnc2c1[n+](C/C=C(\C)CC/C=C(\C)CC/C=C(\C)CCC=C(C)C)cn2C.[Cl-] | 3.13 µg/mL
26 | CC1CCC(=NNC(=O)c2[nH]c3ccc(F)cc3c2-c2ccccc2)CC1 (stereo not given) | 6.25 µg/mL
27 | CCCC1CCC2(CC1)SCC(=O)N2NC(=O)c1[nH]c2ccc(F)cc2c1-c1ccccc1 (stereo not given) | 6.25 µg/mL
28 | Cc1ccc(SC2=CC(=O)c3nc4ccccc4c4ccnc2c34)cc1 | 9 µM
29 | COc1cc2c(cc1OC)C(CC(C)=O)N(C)c1c-2ccc2cc3c(cc12)OCO3 (stereo not given) | 6.2 µg/mL
30 | COc1c(O)ccc2c1cnc1c3cc4c(cc3ccc21)OCO4 [DECARINE] | 3.1 µg/mL
31 | CC[C@@H](CO)NCCN[C@@H](CC)CO [ETHAMBUTOL] | 5.61 µg/mL

test system: Mycobacterium tuberculosis; assay: Antimycobacterial activity against Mycobacterium tuberculosis; assay type: functional; conditions: not given

Row | SMILES | IC [µg/mL]
32 | C/C=C/[C@H]1C=C[C@H]2[C@@H]3C[C@H](C)CC[C@H]3[C@@H]3Oc4ccc(cc4)C[C@@H]4C(=O)NC(=O)[C@H]4C(=O)[C@@H]1[C@H]23 | 3.125
33 | C=C[C@H]1C=C[C@H]2[C@@H]3C[C@H](C)CC[C@H]3[C@@H]3Oc4ccc(cc4)C[C@]4(O)NC(=O)[C@]5(O[C@H]54)C(=O)[C@@H]1[C@H]23 | 0.78
34 | C=C[C@H]1C=C[C@H]2[C@@H]3C[C@H](C)CC[C@H]3[C@@H]3Oc4ccc(cc4)C[C@@H]4C(=O)NC(=O)[C@H]4C(=O)[C@@H]1[C@H]23 | 0.78
35 | C=C[C@H]1C=C[C@H]2[C@@H]3C[C@H](C)CC[C@H]3[C@@H]3Oc4ccc(cc4)C[C@@]4(O)C[C@H](C(=O)N4)C(=O)[C@@H]1[C@H]23 | 0.78
36 | CO/N=c1\[n-]cnc2c1[n+](C/C=C(\C)CC/C=C(\C)CCC1=C(C)CCCC1(C)C)cn2C | 6.25
37 | CC1=C(CC/C(C)=C/CC/C(C)=C/C[n+]2cn(C)c3nc[n-]/c(=N\OC(C)(C)C)c32)C(C)(C)CCC1 | 6.25

same assay, conditions: Mycobacterium tuberculosis

Row | SMILES | MIC
38 | c1cc2c[n+](c1)CCCCCCCCCCCCc1ccc[n+](c1)CCCCCCCCCCC2 | 9.3 µg/mL
39 | CCCC/C=C\CCCCc1cc(=O)c2ccccc2n1C | 2 µg/mL
40 | Cn1c(=O)ccc2ccccc21 | 6.25 µg/mL
41 | COC(=O)c1ccc2[nH]c3ccccc3c2c1 | 50 µg/mL
42 | COc1c(O)c2c3c(c1OC)CCN[C@H]3Cc1cc3c(cc1-2)OCO3.Cl | 4 µg/mL
43 | COc1ccc(CCC2CCc3ccccc3N2C)cc1OC (stereo not given) | 6.25 µg/mL
44 | COC(=O)N1CCc2c(OC)c(OC)c(O)c3c2[C@@H]1Cc1cc2c(cc1-3)OCO2 | 128 µg/mL
45 | COc1c(O)c2c3c(c1OC)CCN[C@H]3Cc1cc3c(cc1-2)OCO3 | 64 µg/mL
46 | CCCC/C=C\CCCCCCc1cc(=O)c2ccccc2n1C | 2 µg/mL
47 | c1cc2c[n+](c1)CCCCCCCCCCCCCCc1ccc[n+](c1)CCCCCCCCCC2 | 5.3 µg/mL
48 | CC(=O)NCCC1=C2Nc3ccccc3C3C=CN=C(C4=C1SCO4)C23 (stereo not given) | 17 µM
49 | CCCCC/C=C\C/C=C\CCCCc1cc(=O)c2ccccc2n1C | 2 µg/mL
50 | O=C(NN1C(=O)C(Cl)C1c1ccc(Cl)cc1)c1cc(O)c(O)c(O)c1 (stereo not given) | 0.83 µg/mL
51 | CC(=O)NCCC1C2=C3C(=NC=CC3c3ccccc3N2)C2=C1SCC(=O)N2 (stereo not given) | 32 µM
52 | CC(=O)NCCC1C2=C3C(=NC=CC3c3ccccc3N2)c2ncsc21 (stereo not given) | 34 µM
53 | c1cc2c[n+](c1)CCCCCCCCCCCCCCc1ccc[n+](c1)CCCCCCCCCCC2 | 4.6 µg/mL
54 | CCCCC/C=C\C/C=C\CCc1cc(=O)c2ccccc2n1C | 2 µg/mL
55 | O=C(NN1C(=O)C(Cl)C1c1cccc(Cl)c1)c1cc(O)c(O)c(O)c1 (stereo not given) | 0.57 µg/mL
56 | CCCCCCCCCCCc1cc(=O)c2ccccc2n1C | 2 µg/mL
57 | CN(C)c1ccc(C2C(Cl)C(=O)N2NC(=O)c2cc(O)c(O)c(O)c2)cc1 (stereo not given) | 0.62 µg/mL
58 | c1cc2c[n+](c1)CCCCCCCCCCCCc1ccc[n+](c1)CCCCCCCCCC2 | 4.6 µg/mL

Row | SMILES | MIC
59 | c1cc2c[n+](c1)CCCCCCCCCCCCCc1ccc[n+](c1)CCCCCCCCCC2 | 6.6 µg/mL
60 | O=C(NN1C(=O)C(Cl)C1c1ccccc1Cl)c1cc(O)c(O)c(O)c1 (stereo not given) | 0.76 µg/mL
61 | [C-]#[N+][C@]12[C@H]3O[C@H]3C(C)(C)c3[nH]c4cccc5c4c3[C@]1(O)[C@H](CC[C@]2(C)C=C)C5(C)C | 13.1 µM
62 | [C-]#[N+][C@@H]1[C@@H]2c3c(C(C)(C)C=C)[nH]c4cccc(c34)C(C)(C)[C@H]2C[C@@H](Cl)[C@]1(C)C=C [AMBIGUINE A ISONITRILE] | 46.7 µM
63 | [C-]#[N+][C@@H]1[C@]2(O)c3c(C(C)(C)C=C)[nH]c4cccc(c34)C(C)(C)[C@H]2CC[C@]1(C)C=C [AMBIGUINE C ISONITRILE] | 7 µM
64 | [C-]#[N+][C@]12[C@H]3O[C@H]3C(C)(C)c3[nH]c4cccc5c4c3[C@]1(O)[C@H](C[C@@H](Cl)[C@]2(C)C=C)C5(C)C [AMBIGUINE E ISONITRILE] | 21 µM
65 | [C-]#[N+][C@]12C=CC(C)(C)c3[nH]c4cccc5c4c3[C@]1(O)[C@H](CC[C@]2(C)C=C)C5(C)C [AMBIGUINE L ISONITRILE] | 4.5 µg/mL
66 | [C-]#[N+][C@]12C[C@@H](O)C(C)(C)c3[nH]c4cccc5c4c3[C@]1(O)[C@H](C[C@@H](Cl)[C@]2(C)C=C)C5(C)C [AMBIGUINE M ISONITRILE] | 3.3 µg/mL
67 | [C-]#[N+][C@]12C[C@@H](O)C(C)(C)c3[nH]c4cccc5c4c3[C@]1(O)[C@H](CC[C@]2(C)C=C)C5(C)C [AMBIGUINE N ISONITRILE] | 10.9 µg/mL
68 | Nc1c(Br)cc(Br)cc1CN[C@H]1CC[C@H](O)CC1 [AMBROXOL] | 6 µg/mL
69 | CN(Cc1cc(Br)cc(Br)c1N)C1CCCCC1 [BROMHEXINE] | 6 µg/mL
70 | COc1ccc2c(c[n+](C)c3c4cc5c(cc4ccc23)OCO5)c1OC.[Cl-] [CHELERYTHRINE CHLORIDE] | 14.3 µg/mL
71 | COc1ccc2c(c1)[nH]c1cc(OC)c(C(=O)O)cc12 [CLAUSINE K] | 100 µg/mL
72 | C=CC(C)(C)c1[nH]c2c(CC=C(C)C)cc(CC=C(C)C)cc2c1C[C@@H]1NC(=O)[C@H](C)NC1=O [ECHINULIN] | 170 µg/mL
73 | [C-]#[N+][C@@H]1[C@@H]2c3c[nH]c4cccc(c34)C(C)(C)[C@H]2C[C@@H](Cl)[C@]1(C)C=C [HAPALINDOLE G] | 6.8 µM
74 | [C-]#[N+][C@@H]1[C@H]2c3c[nH]c4cccc(c34)C(C)(C)[C@@H]2CC[C@]1(C)C=C [HAPALINDOLE H] | 58.8 µM
75 | O=[N+]([O-])c1cn2c(n1)OC[C@@H](OCc1ccc(OC(F)(F)F)cc1)C2 [PRETOMANID] | 0.015 µg/mL
76 | CO[C@H]1/C=C/O[C@@]2(C)Oc3c(C)c(O)c4c(O)c(c(/C=N/N5CCN(C6CCCC6)CC5)c(O)c4c3C2=O)NC(=O)/C(C)=C\C=C\[C@H](C)[C@H](O)[C@@H](C)[C@@H](O)[C@@H](C)[C@H](OC(C)=O)[C@@H]1C [RIFAPENTINE] | 0.02 µg/mL
77 | C[n+]1cc2c3c(ccc2c2ccc4cc5c(cc4c21)OCO5)OCO3.[Cl-] [SANGUINARIUM CHLORIDE] | 24.5 µg/mL
78 | O=[N+]([O-])c1cn2c(n1)OC[C@@H](OCc1ccc(-c3ccc(OC(F)(F)F)cc3)nc1)C2 [TBA-354] | 0.34 µg/mL

test system: Mycolicibacterium smegmatis; assay: Antimycobacterial activity against Mycobacterium smegmatis; assay type: functional; conditions: not given

Row | SMILES | IC [µg/mL]
79 | C1=C\CCCCN2C[C@H]3CCCC/C=C\CCCCN4CC[C@@H]([C@H](CCCCCC/1)C4)[C@H](C3)C2 | 2.5
80 | OC1CCCC/C=C\CCCC[C@@H]2CN3CCCC/C=C\CCCC[C@H]4C[C@H](CN(C1)C4)[C@H]2CC3 (stereo not given in full) | 12.5
